# In patent publication US6632828B2, “Substituted imidazole neuropeptide Y Y5 receptor antagonists” (Schering Corporation, priority 1999, dated 2003):
# Biological target: T1, Human NPY Y5 receptors (Homo sapiens, UniProt Q15761)
# T1 construct: expressed in transfected cells; host or cells: CHO cells (membrane protein)
# T1 sequence (Q15761 1-445): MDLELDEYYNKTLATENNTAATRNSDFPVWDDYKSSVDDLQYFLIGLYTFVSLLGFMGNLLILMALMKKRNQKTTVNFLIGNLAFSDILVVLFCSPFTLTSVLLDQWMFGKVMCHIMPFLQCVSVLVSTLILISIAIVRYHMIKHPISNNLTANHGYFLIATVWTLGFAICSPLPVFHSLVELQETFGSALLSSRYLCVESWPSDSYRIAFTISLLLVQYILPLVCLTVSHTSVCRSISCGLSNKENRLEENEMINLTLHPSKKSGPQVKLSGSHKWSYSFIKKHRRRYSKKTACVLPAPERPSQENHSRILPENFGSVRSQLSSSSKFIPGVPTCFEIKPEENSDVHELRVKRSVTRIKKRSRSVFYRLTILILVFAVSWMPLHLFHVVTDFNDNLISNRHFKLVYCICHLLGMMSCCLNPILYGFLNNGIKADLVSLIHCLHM
# Assay: NPY Receptor Binding Assay
# Conditions: Human NPY Y5 receptors expressed in CHO cells; 0.1 nM 125I-peptide YY; read-out: r/h Y5 Ki
# Protocol: NPY Receptor Binding Assay
# Human NPY Y5 receptors were expressed in CHO cells. Binding assays were performed in 50 mM HEPES, pH 7.2, 2.5 mM CaCl2, 1 mM MgCl2 and 0.1% BSA containing 5-10 μg of membrane protein and 0.1 nM ^125I-peptide YY in a total volume of 200 μl. Non-specific binding was determined in the presence of 1 uM NPY. The reaction mixtures were incubated for 90 minutes at room temperature, then filtered through Millipore MAFC glass fiber filter plates which had been pre-soaked in 0.5% polyethyleneimine. The filters were washed with phosphate-buffered saline, and radioactivity was measured in a Packard TopCount scintillation counter.
row,Compound,Ki [nM]
1,FC(F)(F)c1cccc(-c2c[nH]c(C34CC5CC(CC(C5)C3)C4)n2)c1 [Example 1A],3
2,O=C(Nc1ccccc1)c1cccc(-c2nc(-c3cccc(C(F)(F)F)c3)c[nH]2)c1 [Example 2A],315
3,FC(F)(F)c1cccc(-c2c[nH]c(-c3cccc(CN4CCCCC4)c3)n2)c1 [Example 3],17
4,CS(=O)(=O)Nc1cccc(-c2nc(-c3cccc(C(F)(F)F)c3)c[nH]2)c1 [Example 5A],1.4
5,CS(=O)(=O)N1CCC(c2nc(-c3cc(Cl)cc(Cl)c3)c[nH]2)CC1 [Example 21C],2
6,FC(F)(F)c1cccc(-c2c[nH]c(N3CCN(c4ccccn4)CC3)n2)c1 [Example 26],1.4

# More lines, now with the values ahead:
row,Ki [nM],Compound
1,52,COC(=O)c1cccc(-c2nc(-c3cccc(C(F)(F)F)c3)c[nH]2)c1 [Example 1B]
2,2.1,CN(c1cccc(-c2nc(-c3cccc(C(F)(F)F)c3)c[nH]2)c1)S(C)(=O)=O [Example 6A]
3,63,O=C(Nc1cccc(-c2nc(-c3cccc(C(F)(F)F)c3)c[nH]2)c1)c1ccccc1 [Example 10A]
4,1.7,FC(F)(F)c1cccc(-c2c[nH]c(C3=CCN(c4ccccn4)CC3)n2)c1 [Example 19]
